From patent US20220227997A1, “Elastomeric silicone compositions comprising glycerol, cyclodextrin and octenidine” (Coloplast A/S, priority 2019, published 2022)
Structures can show the parent of a compound that is named as a salt.

Tests used:
Candida albicans = details: suspension test after 5 minutes of exposure; cited from earlier work
Staphylococcus aureus = details: suspension test after 5 minutes of exposure; cited from earlier work
Pseudomonas aeruginosa = details: suspension test after 5 minutes of exposure; cited from earlier work
Escherichia coli = details: suspension test after 5 minutes of exposure; cited from earlier work
Proteus mirabilis = details: suspension test after 5 minutes of exposure; cited from earlier work
[1] = system: gram positive and gram negative bacteria; details: generally; cited from earlier work
[2] = Solubilization of octenidine in glycerol; format: physicochemical; details: without cyclodextrin
From the text: Octenidine is an amphiphilic substance therefore its solubility in glycerol is negligible, but may form micelles for higher solubility. In this study β-cyclodextrin (βCD) was used as a tool for allowing significant amounts of hydrophobic substances to be dissolved in hydrophilic media such as glycerol. Cyclodextrins as cyclic oligosaccharides that form host-guest complexes with hydrophobic molecules thereby enabling multiple potential uses. Here octenidine (0.35 g) and β-cyclodextrin (0.3182 g) were added to glycerol. The molar ratio between octenidine and β-cyclodextrin in the example was 2:1. The mixture was heated up to 80° C. and agitated using a magnetic stirrer until a clear solution was obtained (usually no longer than 30 minutes). Obtaining a clear mixture is indicative of successful preparation of a βCD-octenidine complex.

[3] = in water; estimated by Steward et al.; cited from earlier work

Row | Structure (SMILES) | Effective Concentration (Candida albicans) [%] | Effective Concentration (Staphylococcus aureus) [%] | Effective Concentration (Pseudomonas aeruginosa) [%] | Effective Concentration (Escherichia coli) [%] | Effective Concentration (Proteus mirabilis) [%] | Effective concentrations in suspension [1] | solubility in glycerol [2] | critical micellar concentration [3] [mM]
1 | [H]/N=C(\N/C(=N/[H])NCCCCCCNC(=N)NC(=N)Nc1ccc(Cl)cc1)Nc1ccc(Cl)cc1 [Chlorhexidine digluconate] | 0.025 | >0.2 | >0.2 | 0.1 | >0.2 |  |  | 
2 | CCCCCCCCN=c1ccn(CCCCCCCCCCn2ccc(=NCCCCCCCC)cc2)cc1 [Octenidine dihydrochloride, N-octyl-1-[10-(4-octyliminopyridin-1-yl)decyl]pyridin-4-imine dihydro-chloride] | 0.01 | 0.025 | 0.025 | 0.025 | 0.025 | above 0.005 wt % | negligible | 3.79
